# Reference: patent US20240165097A1, “PHARMACEUTICAL COMPOSITION FOR THE TREATMENT OF ALZHEIMER'S DISEASE OR DEMENTIA” (Heptares Therapeutics Limited, priority 2021, published 2024)
# Entries after “also recorded” stand apart in the source; their conditions may differ. Like-named read-outs stand apart in the source and are kept apart here.
# Assay: Example D: HTL0018318 plasma pharmacokinetics
# Format: in vivo, human
# Protocol: Selected plasma pharmacokinetics (PK) parameters for HTL0018318 were estimated during the period over which PD assessments were made. Details of assessment times for all endpoints are described below.
# Pharmacokinetics (PK) were evaluated via blood samples, for determination of HTL0018318 concentrations in plasma. Blood samples were collected during clinic visits before morning dose administration and 1, 2, and 4 hours after dose administration, on Day 1, Day 6, Day 11, Day 16, Day 28, and Day 35 (follow-up visit). Bioanalysis used a fully validated method and all samples were analysed within the established period of storage stability. Validated Phoenix® WinNonlin® Version 6.4 was used to derive PK parameters.
# All safety analyses used the safety set (SAF; randomised dose). The SAF (randomised dose) included all randomised patients who received at least one dose of the study drug; treatment group assignment was based on the initial randomised dose. All efficacy analyses were considered exploratory and used the full analysis set (FAS). The FAS included all randomised patients with at least one post-baseline efficacy measurement; treatment group assignment was based on the initial randomised dose. All summaries and analyses of PK data used the pharmacokinetic set (PKS). The PKS included all randomised patients with valid PK assessments; treatment group assignment was based on actual dose received.
smiles,measurement,setting,value
"CCOC(=O)N1C2CCC1CC(N1CCC3(CC1)CNC(=O)C3)C2 (stereo not drawn) [HTL0018318, ethyl 3-(3-oxo-2,8-diazaspiro[4.5]dec-8-yl)-8-azabicyclo[3.2.1]octane-8-carboxylate]","Ctrough, arithmetic mean ± SD","5 mg, visit day 6",14.2 ± 12.1 ng/mL
same,"Ctrough, arithmetic mean ± SD","5 mg, visit day 11",13.7 ± 10.3 ng/mL
same,"Ctrough, arithmetic mean ± SD","10 mg, visit day 6",7.55 ± 4.72 ng/mL
same,"Ctrough, mean","10 mg, visit day 11, n = 2",5.47 ng/mL
same,"Ctrough, arithmetic mean ± SD","15 mg, visit day 6",19.0 ± 25.7 ng/mL
same,"Ctrough, arithmetic mean ± SD","15 mg, visit day 11",27.9 ± 40.7 ng/mL
same,"Cmax, arithmetic mean ± SD","25 mg, visit day 28",223 ± 134 ng/mL
same,"dose-exposure proportionality (Cmax, AUC0-4 h)",5-25 mg,Dose-exposure proportionality was confirmed; also recorded: increased proportionally across 5-25 mg doses
same,steady-state achieved with daily dosing,any given dose level,5 days
same,AUC(0-t),"human, plasma, 5 mg, visit day 1, read-out: AUC0-4 h, arithmetic mean ± SD",113 ± 57.6 ng·h/mL
same,Cmax,"human, plasma, 5 mg, visit day 1, read-out: Cmax, arithmetic mean ± SD",40.3 ± 24.4 ng/mL
same,AUC(0-t),"human, plasma, 5 mg, visit day 6, read-out: AUC0-4 h, arithmetic mean ± SD",146 ± 53.1 ng·h/mL
same,Cmax,"human, plasma, 5 mg, visit day 6, read-out: Cmax, arithmetic mean ± SD",50.5 ± 15.6 ng/mL
same,AUC(0-t),"human, plasma, 5 mg, visit day 11, read-out: AUC0-4 h, arithmetic mean ± SD",149 ± 70.6 ng·h/mL
same,Cmax,"human, plasma, 5 mg, visit day 11, read-out: Cmax, arithmetic mean ± SD",48.3 ± 19.6 ng/mL
same,AUC(0-t),"human, plasma, 5 mg, visit day 16, read-out: AUC0-4 h, arithmetic mean ± SD",132 ± 56.2 ng·h/mL
same,Cmax,"human, plasma, 5 mg, visit day 16, read-out: Cmax, arithmetic mean ± SD",46.4 ± 18.9 ng/mL
same,AUC(0-t),"human, plasma, 5 mg, visit day 28, read-out: AUC0-4 h, arithmetic mean ± SD",144 ng·h/mL
same,Cmax,"human, plasma, 5 mg, visit day 28, read-out: Cmax, arithmetic mean ± SD",51.8 ng/mL
same,AUC(0-t),"human, plasma, 10 mg, visit day 6, read-out: AUC0-4 h, arithmetic mean ± SD",244 ± 88 ng·h/mL
same,Cmax,"human, plasma, 10 mg, visit day 6, read-out: Cmax, arithmetic mean ± SD",82.4 ± 31.6 ng/mL
same,AUC(0-t),"human, plasma, 10 mg, visit day 11, n = 2, read-out: AUC0-4 h, mean [minimum, maximum]",231 ng·h/mL
same,Cmax,"human, plasma, 10 mg, visit day 11, read-out: Cmax, arithmetic mean ± SD",69.7 ± 33.6 ng/mL
same,AUC(0-t),"human, plasma, 10 mg, visit day 16, n = 1, read-out: AUC0-4 h",302 ng·h/mL
same,Cmax,"human, plasma, 10 mg, visit day 16, n = 1, read-out: Cmax",87.5 ng/mL
same,AUC(0-t),"human, plasma, 10 mg, visit day 28, n = 1, read-out: AUC0-4 h",222 ng·h/mL
same,Cmax,"human, plasma, 10 mg, visit day 28, n = 1, read-out: Cmax",89 ng/mL
same,AUC(0-t),"human, plasma, 15 mg, visit day 6, read-out: AUC0-4 h, arithmetic mean ± SD",315 ± 163 ng·h/mL
same,Cmax,"human, plasma, 15 mg, visit day 6, read-out: Cmax, arithmetic mean ± SD",106 ± 54 ng/mL
same,AUC(0-t),"human, plasma, 15 mg, visit day 11, read-out: AUC0-4 h, arithmetic mean ± SD",379 ± 77.5 ng·h/mL
same,Cmax,"human, plasma, 15 mg, visit day 11, read-out: Cmax, arithmetic mean ± SD",126 ± 29.3 ng/mL
same,AUC(0-t),"human, plasma, 15 mg, visit day 16, read-out: AUC0-4 h, arithmetic mean ± SD",422 ± 94.5 ng·h/mL
same,Cmax,"human, plasma, 15 mg, visit day 16, read-out: Cmax, arithmetic mean ± SD",136 ± 31.4 ng/mL
same,AUC(0-t),"human, plasma, 15 mg, visit day 28, read-out: AUC0-4 h, arithmetic mean ± SD",368 ng·h/mL
same,Cmax,"human, plasma, 15 mg, visit day 28, read-out: Cmax, arithmetic mean ± SD",123 ng/mL
same,AUC(0-t),"human, plasma, 25 mg, visit day 11, read-out: AUC0-4 h, arithmetic mean ± SD",650 ± 302 ng·h/mL
same,Cmax,"human, plasma, 25 mg, visit day 11, read-out: Cmax, arithmetic mean ± SD",222 ± 102 ng/mL
same,AUC(0-t),"human, plasma, 25 mg, visit day 16, read-out: AUC0-4 h, arithmetic mean ± SD",728 ± 359 ng·h/mL
same,Cmax,"human, plasma, 25 mg, visit day 16, read-out: Cmax, arithmetic mean ± SD",243 ± 108 ng/mL
same,AUC(0-t),"human, plasma, 25 mg, visit day 28, read-out: AUC0-4 h, arithmetic mean ± SD",668 ng·h/mL
same,Cmax,"human, plasma, 25 mg, visit day 28, read-out: Cmax, arithmetic mean ± SD",224 ng/mL
same,concentration at 16 day,"human, plasma, 5 mg, visit day 16, read-out: Ctrough, arithmetic mean ± SD",14.1 ± 10.8 ng/mL
same,concentration at 28 day,"human, plasma, 5 mg, visit day 28, read-out: Ctrough, arithmetic mean ± SD",14.2 ± 12.3 ng/mL
same,concentration at 16 day,"human, plasma, 10 mg, visit day 16, n = 1, read-out: Ctrough",8.25 ng/mL
same,concentration at 28 day,"human, plasma, 10 mg, visit day 28, n = 1, read-out: Ctrough",6.41 ng/mL
same,concentration at 16 day,"human, plasma, 15 mg, visit day 16, read-out: Ctrough, arithmetic mean ± SD",29.4 ± 38.5 ng/mL
same,concentration at 28 day,"human, plasma, 15 mg, visit day 28, read-out: Ctrough, arithmetic mean ± SD",23.2 ± 16 ng/mL
same,concentration at 11 day,"human, plasma, 25 mg, visit day 11, read-out: Ctrough, arithmetic mean ± SD",22.2 ± 21.8 ng/mL
same,concentration at 16 day,"human, plasma, 25 mg, visit day 16, read-out: Ctrough, arithmetic mean ± SD",66.7 ± 80.4 ng/mL
same,concentration at 28 day,"human, plasma, 25 mg, visit day 28, read-out: Ctrough, arithmetic mean ± SD",40.3 ± 30.6 ng/mL
same,Tmax,"human, plasma, all doses, read-out: Tmax (median)",1 to 2 h
